# Results from PubChem BioAssay (NCI).
#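 Briefly, cells in 96-well plates were exposed to five compound concentrations for 48 h, and endpoints were estimated by linear interpolation. Here, GI50 denotes the concentration required for 50% inhibition of growth. TGI is the concentration that stops growth completely.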
# How the values were obtained:
# Test in all cases: NCI-60 cell line screen, 48 h
# [1] = test system: SF-295 CNS
# [2] = test system: OVCAR-3 ovarian
# [3] = test system: HOP-62 NSCLC
# [4] = test system: NCI-H23 lung
# [5] = test system: NCI-H460 lung
# [6] = test system: U251 CNS
# [7] = test system: MALME-3M melanoma
# [8] = test system: KM12 colon
# [9] = test system: UACC-257 melanoma
# [10] = test system: HCC-2998 colon
# [11] = test system: SF-268 CNS
# [12] = test system: SW-620 colon
# [13] = test system: A498 renal
# [14] = test system: MDA-MB-435
# [15] = test system: TK-10 renal
# [16] = test system: PC-3 prostate
# [17] = test system: OVCAR-8 ovarian
# [18] = test system: HS 578T breast
# [19] = test system: SN12C renal
# [20] = test system: T-47D breast
# [21] = test system: RXF 393 renal
# [22] = test system: CCRF-CEM leukemia
# [23] = test system: MDA-MB-231 breast
# [24] = test system: OVCAR-4 ovarian
# [25] = test system: HCT-116 colon
# [26] = test system: SK-MEL-2 melanoma
# [27] = test system: COLO 205 colon
structure (smiles),measurement,setting,value
Oc1c(I)cc(I)cc1CNCCN(Cc1ccccn1)Cc1ccccn1,GI50,[1],1230 nM
same,TGI,[1],2630 nM
same,GI50,[2],1320 nM
same,TGI,[2],2730 nM
same,GI50,[3],859 nM
same,TGI,[3],2670 nM
same,GI50,[4],1760 nM
same,TGI,[4],4660 nM
same,GI50,[5],804 nM
same,TGI,[5],2480 nM
same,GI50,[6],827 nM
same,TGI,[6],2890 nM
same,GI50,[7],1530 nM
same,TGI,[7],3330 nM
same,GI50,[8],1200 nM
same,TGI,[8],2670 nM
same,GI50,[9],1890 nM
same,TGI,[9],4250 nM
same,GI50,[10],1470 nM
same,TGI,[10],2950 nM
same,GI50,[11],1010 nM
same,TGI,[11],2400 nM
same,GI50,[12],1650 nM
same,TGI,[12],3470 nM
same,GI50,[13],1670 nM
same,TGI,[13],3040 nM
same,GI50,[14],1550 nM
same,TGI,[14],3150 nM
same,GI50,[15],1260 nM
same,TGI,[15],2540 nM
same,GI50,[16],1160 nM
same,TGI,[16],2920 nM
same,GI50,[17],2140 nM
same,TGI,[17],8160 nM
same,GI50,[18],2120 nM
same,TGI,[18],7430 nM
same,GI50,[19],667 nM
same,TGI,[19],2370 nM
same,GI50,[20],1460 nM
same,TGI,[20],2830 nM
same,GI50,[21],1500 nM
same,TGI,[21],2990 nM
same,GI50,[22],1870 nM
same,TGI,[22],21100 nM
same,GI50,[23],1150 nM
same,TGI,[23],3160 nM
same,GI50,[24],896 nM
same,TGI,[24],2230 nM
same,GI50,[25],1280 nM
same,TGI,[25],2610 nM
same,GI50,[26],1740 nM
same,TGI,[26],3800 nM
same,GI50,[27],1490 nM
same,TGI,[27],3680 nM
